According to patent US11271238B2, “Applications of low-cost, thermal and electrochemically stable organic compounds as high performance redox active materials in redox flow batteries” (Utah State University, priority 2018, dated 2022):
Like-named read-outs stand apart in the source and are kept apart here.

Experiments:
Aqueous solubility = assay type: physicochemical
[1] = cited from earlier work
[2] = Oxygen sensitivity of the reduced state (bubbling with air for 10 minutes); assay type: physicochemical
[3] = Linear sweep voltammetry with rotating disk electrode (Levich plot); assay type: physicochemical; settings: 1.0 mM in 0.5 M NaCl, Levich equation
Method: Linear sweep voltammetry (LSV) experiments were conducted using a Gamry 1000E potentiostat with a three-electrode system. A 5 mm diameter rotating glassy carbon disk encased in Teflon served as the working electrode. A glassy carbon rod was used as the counter electrode. An Ag/AgCl wire served as the reference electrode. The working electrode was cleaned using the same method as in the CV experiments. During the experiments, the working electrode rotated from 300 rpm to 2400 rpm at increments of 300 rpm. Three scans at each rotation rate were collected to ensure accuracy. LSV scans were conducted at a rate of 5 mV/s from 0.2 V to 0.8 V versus NHE.

[4] = Electron transfer rate constant by Nicholson's method; assay type: physicochemical
Method: The electron transfer rate constants (k^0) for the electron transfers of [([…]]^3+ were estimated. Following the well-known Nicholson's method (R. S. Nicholson, Anal. Chem. 1965, 37, 1351-1355.), a solution containing 4.0 mM [(NPr)2TTz]Cl4 with 0.5 M NaCl was used to record CV curves (FIG. 6A and FIG. 6B). The peak-to-peak separation (reduction and oxidation peak potential gap), ΔEp, was obtained and used to calculate the kinetic parameter, Ψ, using Equation 2. And then, k^0 was calculated from equation 3 based on the relationship between Ψ and ν^-1/2. Ψ=(-0.6288+0.0021ΔEp)/(1-0.017ΔEp) (Equation 2) Ψ=k^0[πDnF/RT]^-1/2ν^-1/2 (Equation 3) where F, D, and n are defined in Equation 1, R=8.314, and ν represents the scan rate.

[5] = Cyclic voltammetry in 0.5 M NaCl; assay type: physicochemical
Method: Cyclic voltammetry was further used to characterize [(NPr)2TTz]Cl4.r All cyclic voltammetry experiments were conducted in an N2 purged 0.5 M NaCl aqueous solution with a Gamry 1000E potentiostat. A 3 mm PEEK encased glassy carbon disk was used as the working electrode. The working electrode was polished with 0.05 micron Al2O3 powder and rinsed with deionized H2O. A glassy carbon rod was used as the counter electrode. A silver wire coated with AgCl and suspended in 3.0 M KCl electrolyte was used as the reference electrode. The two redox peaks of [(NPr)2TTz]Cl4 were distinguished by peak fitting of its CV curve in the Origin program after removing background current.

[6] = 500 mV/s scan rate, 4.0 mM in 0.5 M NaCl

## C[n+]1ccc(-c2nc3sc(-c4cc[n+](C)cc4)nc3s2)cc1.[Cl-].[Cl-] [(Me2TTz)Cl2, N,N′-dimethyl 2,5-bis(4-pyridinium)thiazolo[5,4-d]thiazole Dichloride]
Aqueous solubility; in water
  water solubility: < 10 mm

## C[n+]1ccc(-c2cc[n+](C)cc2)cc1 [Methyl viologen]
[1]; MV^+ and MV^0
  air sensitivity of reduced states: highly air sensitive
[1]; aqueous solution
  solubility of charge-neutral state in aqueous solution: insolubility

## C[N+](C)(C)CCCN1C=CC(=c2nc3sc(=C4C=CN(CCC[N+](C)(C)C)C=C4)nc3s2)C=C1.[Cl-].[Cl-] [[(NPr)2TTz]Cl2, 3,3′-(thiazolo[5,4-d]thiazole-2,5-diylidenebis(pyridin-1(4H)-yl-4(4H)-ylidene))bis(N,N,N-trimethylpropan-1-aminium) Dichloride]
[2]
  oxygen sensitivity of the two-electron reduced state: no change in color

## C[N+](C)(C)CCC[n+]1ccc(-c2nc3sc(-c4cc[n+](CCC[N+](C)(C)C)cc4)nc3s2)cc1.[Cl-].[Cl-].[Cl-].[Cl-] [[(NPr)2TTz]Cl4, 4,4′-(thiazolo[5,4-d]thiazole-2,5-diyl)bis(1-(3-(trimethylammonio)propyl)pyridin-1-ium) tetrachloride]
[3]
  average diffusion coefficient (D) for [(NPr)2TTz]^4+ and [(NPr)2TTz]^3+: 3.15×10^−6 cm^2 s^−1
Aqueous solubility; 2.0 m NaCl aqueous solution, saline or isotonic, in 2.0 m NaCl, read-out: solubility in 2.0 m NaCl
  solubility: 1100 mM
Aqueous solubility; in 2.0 m NaCl
  charge capacity corresponding to solubility: 60.0 Ah L^−1
Aqueous solubility; in H2O
  charge capacity corresponding to solubility: 69.7 Ah L^−1
Aqueous solubility; water, in H2O, read-out: solubility in water
  solubility: 1300 mM
[4]; [6]
  peak-to-peak separation ΔEp, 1st electron reduction: 53 mV
  peak-to-peak separation ΔEp, 2nd electron reduction: 58 mV
[4]; lower limit, Ψ=20, 500 mV/s
  electron transfer rate constant k^0, both single-electron reductions: greater than 0.28 cm/s
[5]; 4.0 mM in 0.5 M NaCl
  E1/2 of 1st electron reduction ([(NPr)2TTz]^4+/3+): −0.38 V vs. NHE
  E1/2 of 2nd electron reduction ([(NPr)2TTz]^3+/2+): −0.50 V vs. NHE
[5]; neutral NaCl solution
  average redox potential of the two single-electron reductions: -0.44 V

## N, N, N, 2, 2, 6, 6-Heptamethylpiperidinyloxy-4-ammonium Chloride [N^Me-TEMPO, reference compound]
[5]; neutral NaCl solution
  single-electron oxidation potential: +1.0 V (vs. NHE)
